Active and inactive are the calls of the source. The rule behind the calls is not given here.
Tests used:
K562 = assay: Induction of apoptosis in human K562 cells assessed as apoptosis at 2.9 uM after 24 to 72 hrs using annexin V/PI followed by flow cytometry; type: functional, cell-based; conditions: time 24-72 hrs
[1] = Nonlethal toxicity in zebrafish embryos assessed as embryo survival at 5 uM after 72 hrs by visual analysis (reference value: 100%); type: organism-based, Danio rerio; conditions: in vivo
[2] = Nonlethal toxicity in zebrafish embryos assessed as embryo survival at 50 uM after 72 hrs by visual analysis (reference value: 100%); type: organism-based, Danio rerio; conditions: in vivo
HPBALL = assay: Anticancer activity against human HPBALL cells assessed as reduction in total number of colony forming units at 5 uM measured after 24 hrs by colony formation assay; type: functional, cell-based
Danio rerio [3] = assay: Toxicity in zebrafish embryos assessed as pericardial edema at 0.05 uM after 72 hrs by visual analysis (reference value: 10%); type: organism-based, Embryo; conditions: in vivo
Danio rerio [4] = assay: Toxicity in zebrafish embryos assessed as pericardial edema at 0.5 uM after 72 hrs by visual analysis (reference value: 10%); type: organism-based, Embryo; conditions: in vivo
Danio rerio [5] = assay: Toxicity in zebrafish embryos assessed as pericardial edema at 5 uM after 72 hrs by visual analysis (reference value: 10%); type: organism-based, Embryo; conditions: in vivo
Danio rerio [6] = assay: Toxicity in zebrafish embryos assessed as pericardial edema at 50 uM after 72 hrs by visual analysis (reference value: 10%); type: organism-based, Embryo; conditions: in vivo
Danio rerio [7] = organism: Danio rerio; assay: Toxicity in zebrafish embryos assessed as head necrosis at 0.005 uM after 72 hrs by visual analysis (reference value: 0%); type: organism-based; conditions: in vivo
Danio rerio [8] = organism: Danio rerio; assay: Toxicity in zebrafish embryos assessed as head necrosis at 0.05 uM after 72 hrs by visual analysis (reference value: 0%); type: organism-based; conditions: in vivo
Danio rerio [9] = organism: Danio rerio; assay: Toxicity in zebrafish embryos assessed as head necrosis at 5 uM after 72 hrs by visual analysis (reference value: 0%); type: organism-based; conditions: in vivo
Danio rerio [10] = organism: Danio rerio; assay: Toxicity in zebrafish embryos assessed as tail necrosis at 0.005 uM after 72 hrs by visual analysis (reference value: 0%); type: organism-based; conditions: in vivo
Danio rerio [11] = organism: Danio rerio; assay: Toxicity in zebrafish embryos assessed as tail necrosis at 0.05 uM after 72 hrs by visual analysis (reference value: 0%); type: organism-based; conditions: in vivo
Danio rerio [12] = organism: Danio rerio; assay: Toxicity in zebrafish embryos assessed as tail necrosis at 50 uM after 72 hrs by visual analysis (reference value: 0%); type: organism-based; conditions: in vivo
Danio rerio [13] = organism: Danio rerio; assay: Toxicity in zebrafish embryos assessed as malformation of head at 0.005 uM after 72 hrs by visual analysis (reference value: 0%); type: organism-based; conditions: in vivo
Danio rerio [14] = organism: Danio rerio; assay: Toxicity in zebrafish embryos assessed as malformation of head at 0.05 uM after 72 hrs by visual analysis (reference value: 0%); type: organism-based; conditions: in vivo
Danio rerio [15] = organism: Danio rerio; assay: Toxicity in zebrafish embryos assessed as malformation of head at 5 uM after 72 hrs by visual analysis (reference value: 0%); type: organism-based; conditions: in vivo
Danio rerio [16] = organism: Danio rerio; assay: Toxicity in zebrafish embryos assessed as malformation of tail at 0.005 uM after 72 hrs by visual analysis (reference value: 5%); type: organism-based; conditions: in vivo
Danio rerio [17] = organism: Danio rerio; assay: Toxicity in zebrafish embryos assessed as malformation of tail at 5 uM after 72 hrs by visual analysis (reference value: 5%); type: organism-based; conditions: in vivo
Danio rerio [18] = organism: Danio rerio; assay: Toxicity in zebrafish embryos assessed as teratogenesis at 5 uM after 72 hrs by visual analysis (reference value: 0%); type: organism-based, Embryo; conditions: in vivo
Danio rerio [19] = organism: Danio rerio; assay: Toxicity in zebrafish embryos assessed as teratogenesis at 50 uM after 72 hrs by visual analysis (reference value: 0%); type: organism-based, Embryo; conditions: in vivo
Danio rerio [20] = organism: Danio rerio; assay: Toxicity in zebrafish embryos assessed as cardiac teratogenesis/necrosis at 0.05 uM after 72 hrs by visual analysis (reference value: 0%); type: organism-based, Embryo; conditions: in vivo
Danio rerio [21] = organism: Danio rerio; assay: Toxicity in zebrafish embryos assessed as cardiac teratogenesis/necrosis at 0.5 uM after 72 hrs by visual analysis (reference value: 0%); type: organism-based, Embryo; conditions: in vivo
Danio rerio [22] = organism: Danio rerio; assay: Toxicity in zebrafish embryos assessed as brain hemorrhage at 0.005 uM after 72 hrs by visual analysis (reference value: 0%); type: organism-based; conditions: in vivo
Danio rerio [23] = assay: Toxicity in zebrafish embryos assessed as yolk sac edema at 50 uM after 72 hrs by visual analysis (reference value: 0%); type: organism-based, Embryo; conditions: in vivo
Danio rerio [24] = organism: Danio rerio; assay: Toxicity in zebrafish embryos assessed as small eyes at 0.05 uM after 72 hrs by visual analysis (reference value: 10%); type: organism-based, Embryo; conditions: in vivo

**Q.** For `COc1ccc(S(=O)(=O)n2ccc(/C=C/C(=O)NO)c2)cc1NC(=O)c1[nH]c(C)c2c1CCCCC2=O`, which Activity (K562) is on record?
**A.** Active

**Q.** Which survival at 72 h, 5 µM [1] does the source give for `Cc1[nH]c(C(=O)Nc2cc(S(=O)(=O)N3CCOCC3)ccc2OCCCCCCCC(=O)NO)c2c1C(=O)CCCC2` here?
**A.** 95%

**Q.** And the survival at 72 h, 50 µM [2]?
**A.** 100%

**Q.** What about the Activity (HPBALL) of the same molecule?
**A.** Active

**Q.** What about the Activity (Danio rerio [3]) of the same molecule?
**A.** 10%

**Q.** And the Activity (Danio rerio [4])?
**A.** 20%

**Q.** And the Activity (Danio rerio [5])?
**A.** 10%

**Q.** What about the Activity (Danio rerio [6]) of the same molecule?
**A.** 15%

**Q.** And the Activity (Danio rerio [7])?
**A.** 15%

**Q.** What about the Activity (Danio rerio [8]) of the same molecule?
**A.** 0%

**Q.** What about the Activity (Danio rerio [9]) of the same molecule?
**A.** 0%

**Q.** What about the Activity (Danio rerio [10]) of the same molecule?
**A.** 15%

**Q.** What about the Activity (Danio rerio [11]) of the same molecule?
**A.** 0%

**Q.** What about the Activity (Danio rerio [12]) of the same molecule?
**A.** 15%

**Q.** What about the Activity (Danio rerio [13]) of the same molecule?
**A.** 15%

**Q.** And the Activity (Danio rerio [14])?
**A.** 0%

**Q.** And the Activity (Danio rerio [15])?
**A.** 0%

**Q.** And the Activity (Danio rerio [16])?
**A.** 5%

**Q.** And the Activity (Danio rerio [17])?
**A.** 10%

**Q.** What about the Activity (Danio rerio [18]) of the same molecule?
**A.** 15%

**Q.** What about the Activity (Danio rerio [19]) of the same molecule?
**A.** 0%

**Q.** What about the Activity (Danio rerio [20]) of the same molecule?
**A.** 0%

**Q.** And the Activity (Danio rerio [21])?
**A.** 0%

**Q.** And the Activity (Danio rerio [22])?
**A.** 0%

**Q.** And the Activity (Danio rerio [23])?
**A.** 10%

**Q.** What about the Activity (Danio rerio [24]) of the same molecule?
**A.** 5%

— ChEMBL document CHEMBL5055650, “4-Acyl Pyrrole Capped HDAC Inhibitors: A New Scaffold for Hybrid Inhibitors of BET Proteins and Histone Deacetylases as Antileukemia Drug Leads” (J Med Chem, 2021)
